From patent publication US8664257B2, “Oxygen-substituted 3-heteroaroylamino-propionic acid derivatives and their use as pharmaceuticals” (Sanofi, priority 2010, dated 2014)
Read-outs that look alike come from different tables or passages of the source.

Target: T1, Recombinant human cathepsin A (Homo sapiens, UniProt P10619)
T1 construct: Recombinant human cathepsin A (residues 29-480, with a C-terminal 10-His tag); 10-His (C); purchased R&D Systems 1049-SE
T1 sequence (P10619 29-312 limits assumed): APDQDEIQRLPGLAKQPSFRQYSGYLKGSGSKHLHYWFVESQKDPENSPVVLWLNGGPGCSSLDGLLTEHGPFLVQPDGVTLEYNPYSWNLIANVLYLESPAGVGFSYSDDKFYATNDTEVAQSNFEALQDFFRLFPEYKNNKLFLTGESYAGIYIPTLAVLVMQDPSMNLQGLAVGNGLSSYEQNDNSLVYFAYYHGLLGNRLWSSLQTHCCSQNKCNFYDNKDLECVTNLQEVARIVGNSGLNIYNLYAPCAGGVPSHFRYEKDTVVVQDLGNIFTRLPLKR
T1 sequence (P10619 327-480 limits assumed): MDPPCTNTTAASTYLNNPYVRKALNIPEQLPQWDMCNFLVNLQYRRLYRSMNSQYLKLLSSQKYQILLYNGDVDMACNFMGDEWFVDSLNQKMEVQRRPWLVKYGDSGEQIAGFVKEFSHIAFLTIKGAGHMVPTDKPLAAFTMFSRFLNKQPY
Experiment: Cathepsin A inhibitory activity
Assay type: biochemical
Conditions: read-out: Activity (2): Cathepsin A inhibitory activity, IC50 class
Outline: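 Read-out was microfluidic separation of cleaved vs. uncleaved Bodipy FL-bradykinin (2 μM), giving turnover, % inhibition and IC50. Compound and 833 ng/ml enzyme met for 15 min RT in pH 5.5 MES/DTT before substrate (15 min RT). The 29-480 His-tagged human enzyme was first activated by cathepsin L, then E-64 (10 μM).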

[1] = pharmacological test "Cathepsin A inhibitory activity", IC50 given as class A/B/C

Structure (SMILES)	IC50 [1]	IC50
O=C(O)C[C@H](NC(=O)c1cc(O)n(-c2cccc(Cl)c2)n1)c1ccc(Cl)cc1Cl [Example 266]	100 to 1000 nM	–
O=C(O)CC(NC(=O)c1cc(O)n(-c2cccc(Cl)c2)n1)c1ccc(-c2ccc(F)cc2)cc1 (stereo not drawn) [Example 267]	1000 to 30000 nM	–
O=C(O)C[C@H](NC(=O)c1cc(O)n(-c2cccc(Cl)c2)n1)c1cccnc1 [Example 268]	1000 to 30000 nM	–
COc1ccc([C@H](CC(=O)O)NC(=O)c2cc(O)n(-c3cccc(Cl)c3)n2)cn1 [Example 269]	1000 to 30000 nM	–
O=C(O)C[C@H](NC(=O)c1cc(O)n(-c2ccc(Cl)cc2)n1)c1ccccc1Br [Example 270]	100 to 1000 nM	–
N#Cc1cccc([C@H](CC(=O)O)NC(=O)c2cc(O)n(-c3ccc(Cl)cc3)n2)c1 [Example 271]	–	1000 to 30000 nM
N#Cc1ccc([C@H](CC(=O)O)NC(=O)c2cc(O)n(-c3ccc(Cl)cc3)n2)cc1 [Example 272]	–	1000 to 30000 nM
COc1ccc(C(CC(=O)O)NC(=O)c2cc(O)n(-c3ccc(Cl)cc3)n2)c(OC)c1 (stereo not drawn) [Example 273]	–	1000 to 30000 nM
COc1ccccc1[C@H](CC(=O)O)NC(=O)c1cc(O)n(-c2ccc(Cl)cc2)n1 [Example 274]	–	1000 to 30000 nM
COc1ccc(Cl)cc1C(CC(=O)O)NC(=O)c1cc(O)n(-c2ccc(Cl)cc2)n1 (stereo not drawn) [Example 275]	–	1000 to 30000 nM
O=C(O)C[C@H](NC(=O)c1cc(O)n(-c2ccc(Cl)cc2)n1)c1ccc(F)cc1 [Example 276]	–	1000 to 30000 nM
O=C(O)C[C@H](NC(=O)c1cc(O)n(-c2ccc(Cl)cc2)n1)c1cccc(Cl)c1Cl [Example 277]	–	100 to 1000 nM
COc1cccc([C@H](CC(=O)O)NC(=O)c2cc(O)n(-c3ccc(Cl)cc3)n2)c1 [Example 278]	–	1000 to 30000 nM
O=C(O)C[C@H](NC(=O)c1cc(O)n(-c2ccc(Cl)cc2)n1)c1cccc(F)c1 [Example 279]	–	1000 to 30000 nM
O=C(O)C[C@H](NC(=O)c1cc(O)n(-c2ccc(Cl)cc2)n1)c1cccc(Cl)c1 [Example 280]	–	1000 to 30000 nM
O=C(O)CC(NC(=O)c1cc(O)n(-c2ccc(Cl)cc2)n1)c1cccc(Cl)c1Cl (stereo not drawn) [Example 281]	–	100 to 1000 nM
COc1ccccc1[C@@H](NC(=O)c1cc(O)n(-c2ccc(Cl)cc2)n1)[C@@H](O)C(=O)O [Example 282]	–	1000 to 30000 nM
COc1cccc([C@H](CC(=O)O)NC(=O)c2cc(O)n(-c3ccc(Cl)cc3)n2)c1OC [Example 283]	–	100 to 1000 nM
Cc1cccc([C@H](CC(=O)O)NC(=O)c2cc(O)n(-c3ccc(Cl)cc3)n2)c1 [Example 284]	–	100 to 1000 nM
O=C(O)C[C@H](NC(=O)c1cc(O)n(-c2ccc(Cl)cc2)n1)c1cccc(C(F)(F)F)c1 [Example 285]	–	1000 to 30000 nM
O=C(O)CC(NC(=O)c1cc(O)n(-c2ccc(Cl)cc2)n1)c1ccc(Cl)cc1F (stereo not drawn) [Example 286]	–	1000 to 30000 nM

Structure (SMILES)	IC50 [1]	IC50
Cc1cccc(C(CC(=O)O)NC(=O)c2cc(O)n(-c3ccc(Cl)cc3)n2)c1C (stereo not drawn) [Example 287]	–	100 to 1000 nM
O=C(O)CC(NC(=O)c1cc(O)n(-c2ccc(Cl)cc2)n1)c1cccc(Cl)c1F (stereo not drawn) [Example 288]	–	1000 to 30000 nM
O=C(O)CC(NC(=O)c1cc(O)n(-c2ccc(Cl)cc2)n1)c1cccc(C(F)(F)F)c1Cl (stereo not drawn) [Example 289]	–	100 to 1000 nM
O=C(O)CC(NC(=O)c1cc(O)n(-c2ccc(Cl)cc2)n1)c1cccc(Oc2ccc(Cl)cc2)c1 (stereo not drawn) [Example 290]	–	1000 to 30000 nM
Cc1ccc(C(CC(=O)O)NC(=O)c2cc(O)n(-c3ccc(Cl)cc3)n2)c(C)c1 (stereo not drawn) [Example 291]	–	100 to 1000 nM
Cc1cc(F)ccc1C(CC(=O)O)NC(=O)c1cc(O)n(-c2ccc(Cl)cc2)n1 (stereo not drawn) [Example 292]	–	100 to 1000 nM
O=C(O)C[C@H](NC(=O)c1cc(O)n(-c2ccc(Cl)cc2)n1)c1ccccc1F [Example 293]	–	1000 to 30000 nM
O=C(O)CC(NC(=O)c1cc(O)n(-c2ccc(Cl)cc2)n1)c1ccc(Oc2ccccc2)cc1 (stereo not drawn) [Example 294]	–	1000 to 30000 nM
O=C(O)C[C@H](NC(=O)c1cc(O)n(-c2ccc(Cl)cc2)n1)c1c(F)cccc1F [Example 295]	–	1000 to 30000 nM
O=C(O)C[C@H](NC(=O)c1cc(O)n(-c2ccc(Cl)cc2)n1)c1ccc(Cl)cc1 [Example 296]	–	100 to 1000 nM
O=C(O)C[C@H](NC(=O)c1cc(O)n(-c2ccc(Cl)cc2)n1)c1ccc(Cl)cc1Cl [Example 297]	–	100 to 1000 nM
O=C(O)C[C@H](NC(=O)c1cc(O)n(-c2ccc(Cl)cc2)n1)c1cccnc1 [Example 298]	–	1000 to 30000 nM
COc1ccc([C@H](CC(=O)O)NC(=O)c2cc(O)n(-c3ccc(Cl)cc3)n2)cn1 [Example 299]	–	1000 to 30000 nM
O=C(O)CC(NC(=O)c1cc(O)n(-c2cccc(F)c2)n1)c1cccc2c1OCO2 (stereo not drawn) [Example 300]	–	100 to 1000 nM
O=C(O)CC(NC(=O)c1cc(O)n(-c2cccc(F)c2)n1)c1cccc(Cl)c1 (stereo not drawn) [Example 301]	–	100 to 1000 nM
O=C(O)C[C@H](NC(=O)c1cc(O)n(-c2cccc(F)c2)n1)c1ccccc1Br [Example 302]	–	100 to 1000 nM
N#Cc1cccc([C@H](CC(=O)O)NC(=O)c2cc(O)n(-c3cccc(F)c3)n2)c1 [Example 303]	–	1000 to 30000 nM
O=C(O)CC(NC(=O)c1cc(O)n(-c2cccc(F)c2)n1)c1cccc(C(F)(F)F)c1 (stereo not drawn) [Example 304]	–	100 to 1000 nM
N#Cc1ccc([C@H](CC(=O)O)NC(=O)c2cc(O)n(-c3cccc(F)c3)n2)cc1 [Example 305]	–	100 to 1000 nM
COc1ccc(C(CC(=O)O)NC(=O)c2cc(O)n(-c3cccc(F)c3)n2)c(OC)c1 (stereo not drawn) [Example 306]	–	100 to 1000 nM
COc1ccccc1[C@H](CC(=O)O)NC(=O)c1cc(O)n(-c2cccc(F)c2)n1 [Example 307]	–	100 to 1000 nM

Structure (SMILES)	IC50 [1]	IC50
O=C(O)CC(NC(=O)c1cc(O)n(-c2cccc(F)c2)n1)c1ccccc1F (stereo not drawn) [Example 308]	–	100 to 1000 nM
COc1ccc(Cl)cc1C(CC(=O)O)NC(=O)c1cc(O)n(-c2cccc(F)c2)n1 (stereo not drawn) [Example 309]	–	100 to 1000 nM
COc1ccc(C(CC(=O)O)NC(=O)c2cc(O)n(-c3cccc(F)c3)n2)c(Cl)c1 (stereo not drawn) [Example 310]	–	100 to 1000 nM
O=C(O)C[C@H](NC(=O)c1cc(O)n(-c2cccc(F)c2)n1)c1ccc(F)cc1 [Example 311]	–	100 to 1000 nM
O=C(O)C[C@H](NC(=O)c1cc(O)n(-c2cccc(F)c2)n1)c1cccc(F)c1 [Example 312]	–	100 to 1000 nM
O=C(O)C[C@H](NC(=O)c1cc(O)n(-c2cccc(F)c2)n1)c1ccc(C(F)(F)F)cc1 [Example 313]	–	1000 to 30000 nM
O=C(O)CC(NC(=O)c1cc(O)n(-c2cccc(F)c2)n1)c1cccc(Cl)c1Cl (stereo not drawn) [Example 314]	–	< 100 nM
O=C(O)CC(NC(=O)c1cc(O)n(-c2cccc(F)c2)n1)c1ccc(OC(F)(F)F)cc1 (stereo not drawn) [Example 315]	–	100 to 1000 nM
COc1ccccc1[C@@H](NC(=O)c1cc(O)n(-c2cccc(F)c2)n1)[C@@H](O)C(=O)O [Example 316]	–	1000 to 30000 nM
Cc1cccc([C@H](CC(=O)O)NC(=O)c2cc(O)n(-c3cccc(F)c3)n2)c1 [Example 317]	–	100 to 1000 nM
O=C(O)C[C@H](NC(=O)c1cc(O)n(-c2cccc(F)c2)n1)c1cccc(C(F)(F)F)c1 [Example 318]	–	100 to 1000 nM
O=C(O)CC(NC(=O)c1cc(O)n(-c2cccc(F)c2)n1)c1ccc(-c2cccc(F)c2)cc1 (stereo not drawn) [Example 319]	–	100 to 1000 nM
O=C(O)CC(NC(=O)c1cc(O)n(-c2cccc(F)c2)n1)c1ccc(Cl)cc1F (stereo not drawn) [Example 320]	–	100 to 1000 nM
Cc1ccc(C)c(C(CC(=O)O)NC(=O)c2cc(O)n(-c3cccc(F)c3)n2)c1 (stereo not drawn) [Example 321]	–	100 to 1000 nM
O=C(O)CC(NC(=O)c1cc(O)n(-c2cccc(F)c2)n1)c1cccc(Cl)c1F (stereo not drawn) [Example 322]	–	100 to 1000 nM
O=C(O)CC(NC(=O)c1cc(O)n(-c2cccc(F)c2)n1)c1cccc(C(F)(F)F)c1Cl (stereo not drawn) [Example 323]	–	100 to 1000 nM
CCc1ccc(C(CC(=O)O)NC(=O)c2cc(O)n(-c3cccc(F)c3)n2)cc1 (stereo not drawn) [Example 324]	–	100 to 1000 nM
Cc1ccc(C(CC(=O)O)NC(=O)c2cc(O)n(-c3cccc(F)c3)n2)c(C)c1 (stereo not drawn) [Example 325]	–	100 to 1000 nM
Cc1cc(F)ccc1C(CC(=O)O)NC(=O)c1cc(O)n(-c2cccc(F)c2)n1 (stereo not drawn) [Example 326]	–	100 to 1000 nM
O=C(O)CC(NC(=O)c1cc(O)n(-c2cccc(F)c2)n1)c1ccc(-c2ccccc2)cc1 (stereo not drawn) [Example 327]	–	100 to 1000 nM
O=C(O)CC(NC(=O)c1cc(O)n(-c2cccc(F)c2)n1)c1ccc(Cl)c(Cl)c1 (stereo not drawn) [Example 328]	–	100 to 1000 nM
